Laboratory results as given in ChEMBL document CHEMBL1146384, “Synthesis and in vitro binding studies of substituted piperidine naphthamides. Part II: Influence of the substitution on the benzyl moiety on the affinity for D2L, D4.2, and 5-HT2A receptors” (Bioorg Med Chem Lett, 2007).
pKi: −log10 of the molar value. Activity calls are given as the source filed them. No cut-off for these calls is given here.

Columns and labels:
[1] = biological target: 5-hydroxytryptamine receptor 2A (Rattus norvegicus, UniProt P14842); experiment: Displacement of [3H]ketanserin from rat 5HT2A receptor
Chain of 5-hydroxytryptamine receptor 2A (P14842 whole entry): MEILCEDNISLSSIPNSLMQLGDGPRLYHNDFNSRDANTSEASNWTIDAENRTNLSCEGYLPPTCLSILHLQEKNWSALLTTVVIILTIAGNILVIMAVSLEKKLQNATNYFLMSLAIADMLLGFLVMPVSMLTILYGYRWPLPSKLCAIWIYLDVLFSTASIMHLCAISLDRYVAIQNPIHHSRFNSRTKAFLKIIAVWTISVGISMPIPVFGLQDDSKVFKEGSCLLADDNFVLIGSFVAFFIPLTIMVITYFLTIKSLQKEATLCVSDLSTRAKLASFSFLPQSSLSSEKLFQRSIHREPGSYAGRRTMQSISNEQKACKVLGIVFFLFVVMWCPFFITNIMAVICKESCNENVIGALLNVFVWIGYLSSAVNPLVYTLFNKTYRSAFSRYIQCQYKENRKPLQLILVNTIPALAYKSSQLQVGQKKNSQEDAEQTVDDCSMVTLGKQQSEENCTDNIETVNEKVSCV

[2] = biological target: 5-hydroxytryptamine receptor 2A (Homo sapiens) (UniProt P28223); experiment: Antagonist activity at 5HT2A assessed as inhibition of serotonin-induced effect at 5 uM; type: functional
Chain of 5-hydroxytryptamine receptor 2A (Homo sapiens) (P28223 whole entry): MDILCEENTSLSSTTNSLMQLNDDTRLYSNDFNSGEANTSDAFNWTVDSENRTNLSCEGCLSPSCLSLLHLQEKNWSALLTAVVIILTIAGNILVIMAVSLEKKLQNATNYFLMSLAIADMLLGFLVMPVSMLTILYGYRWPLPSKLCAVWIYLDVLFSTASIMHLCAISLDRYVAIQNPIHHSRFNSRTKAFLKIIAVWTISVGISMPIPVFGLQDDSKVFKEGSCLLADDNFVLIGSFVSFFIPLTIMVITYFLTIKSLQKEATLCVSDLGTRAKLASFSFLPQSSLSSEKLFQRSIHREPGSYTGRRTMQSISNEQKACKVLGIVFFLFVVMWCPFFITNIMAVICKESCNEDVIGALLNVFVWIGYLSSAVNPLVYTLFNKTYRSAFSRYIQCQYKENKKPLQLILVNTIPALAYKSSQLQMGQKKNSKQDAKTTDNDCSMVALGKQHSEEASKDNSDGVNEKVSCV

[3] = biological target: T1, D(4) dopamine receptor (Homo sapiens, UniProt P21917); experiment: Displacement of [3H]nemonapride from human cloned dopamine D4.2 receptor
T1 sequence (P21917 whole entry): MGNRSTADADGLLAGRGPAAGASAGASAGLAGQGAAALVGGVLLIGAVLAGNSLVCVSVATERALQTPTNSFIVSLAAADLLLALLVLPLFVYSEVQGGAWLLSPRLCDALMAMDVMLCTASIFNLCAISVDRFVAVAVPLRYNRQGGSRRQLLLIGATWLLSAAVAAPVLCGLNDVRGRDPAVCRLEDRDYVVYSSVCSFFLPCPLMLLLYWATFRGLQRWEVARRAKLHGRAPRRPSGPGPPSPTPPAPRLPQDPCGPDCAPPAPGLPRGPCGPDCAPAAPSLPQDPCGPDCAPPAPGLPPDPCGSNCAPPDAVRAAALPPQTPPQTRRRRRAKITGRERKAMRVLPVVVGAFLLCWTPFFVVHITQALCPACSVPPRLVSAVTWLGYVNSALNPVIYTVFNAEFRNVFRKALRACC

[4] = biological target: T2, D(4) dopamine receptor (Homo sapiens) (UniProt P21917); experiment: Antagonist activity at dopamine D4.2 receptor assessed as inhibition of dopamine-induced effect at 5 uM; type: functional
T2 sequence (whole entry): T1 sequence (P21917 whole entry)

[5] = biological target: D(2) dopamine receptor (Homo sapiens) (UniProt P14416); experiment: Displacement of [3H]spiperone from human cloned dopamine D2L receptor at 1 uM
Chain of D(2) dopamine receptor (Homo sapiens) (P14416 whole entry): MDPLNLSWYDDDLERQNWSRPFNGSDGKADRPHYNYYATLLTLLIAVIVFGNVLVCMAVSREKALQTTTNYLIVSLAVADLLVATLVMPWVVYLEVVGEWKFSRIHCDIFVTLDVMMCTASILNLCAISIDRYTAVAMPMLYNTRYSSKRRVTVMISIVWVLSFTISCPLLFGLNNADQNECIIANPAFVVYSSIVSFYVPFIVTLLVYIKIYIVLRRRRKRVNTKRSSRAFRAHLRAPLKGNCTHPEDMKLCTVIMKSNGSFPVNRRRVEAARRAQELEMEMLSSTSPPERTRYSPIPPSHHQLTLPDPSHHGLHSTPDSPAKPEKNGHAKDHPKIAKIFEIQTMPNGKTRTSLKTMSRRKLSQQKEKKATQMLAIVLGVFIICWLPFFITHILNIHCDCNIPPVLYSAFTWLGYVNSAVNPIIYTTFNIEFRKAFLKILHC

[6] = biological target: T2, D(4) dopamine receptor (Homo sapiens); experiment: Displacement of [3H]nemonapride from human cloned dopamine D4.2 receptor at 1 uM
[7] = biological target: 5-hydroxytryptamine receptor 2A (Rattus norvegicus) (UniProt P14842); experiment: Displacement of [3H]ketanserin from rat 5HT2A receptor at 1 uM
Chain of 5-hydroxytryptamine receptor 2A (Rattus norvegicus) (P14842 whole entry): as the sequence (P14842 whole entry) above

| Structure (SMILES) | pKi [1] | Activity [2] | pKi [3] | Activity [4] | inhibition [5] | inhibition [6] | inhibition [7] |
| --- | --- | --- | --- | --- | --- | --- | --- |
| O=C(NC1CCN(Cc2cccc(Br)c2)CC1)c1cccc2ccccc12 | 6.34 | Active | 7.18 | Active |  |  |  |
| O=C(NC1CCN(Cc2cccnc2)CC1)c1ccc2ccccc2c1 | 6.28 |  | 6.49 |  | 4% |  |  |
| O=C(NC1CCN(Cc2ccncc2)CC1)c1ccc2ccccc2c1 | 6.16 |  |  |  | 5% | 32% |  |
| O=C(NC1CCN(Cc2ccccc2)CC1)c1ccc2ccccc2c1 |  | Active |  | Active |  |  |  |
| O=C(NC1CCN(Cc2ccc(Cl)cc2)CC1)c1ccc2ccccc2c1 | 6.62 | Active | 7.43 | Active | 15% |  |  |
| O=C(NC1CCN(Cc2ccc([N+](=O)[O-])cc2)CC1)c1ccc2ccccc2c1 | 6.56 | Active | 6.74 | Active | 0% |  |  |
| O=C(NC1CCN(Cc2ccccc2Cl)CC1)c1cccc2ccccc12 |  |  | 6.48 | Active |  |  |  |
| O=C(NC1CCN(Cc2c(F)c(F)c(F)c(F)c2F)CC1)c1cccc2ccccc12 | 6.64 |  |  |  | 0% | 0% |  |
| O=C(NC1CCN(Cc2ccc([N+](=O)[O-])cc2)CC1)c1cccc2ccccc12 |  |  |  |  | 0% | 42% | 20% |
| O=C(NC1CCN(Cc2c(F)c(F)c(F)c(F)c2F)CC1)c1ccc2ccccc2c1 |  |  |  |  | 0% | 0% | 4% |
| COc1ccc(CN2CCC(NC(=O)c3cccc4ccccc34)CC2)cc1 |  |  | 6.65 | Active | 3% |  |  |
| O=C(NC1CCN(Cc2cccc(C(F)(F)F)c2)CC1)c1ccc2ccccc2c1 |  |  | 6.99 | Active | 9% |  | 15% |
| O=C(NC1CCN(Cc2ccccc2Br)CC1)c1cccc2ccccc12 |  |  |  |  | 8% | 35% |  |
| O=C(NC1CCN(Cc2ccc(Br)cc2)CC1)c1ccc2ccccc2c1 | 6.65 | Active | 7.47 | Active |  |  |  |
| O=C(NC1CCN(Cc2ccccc2Br)CC1)c1ccc2ccccc2c1 |  |  |  |  | 0% | 31% | 47% |
| O=C(NC1CCN(Cc2ccc(Br)cc2)CC1)c1cccc2ccccc12 |  |  | 7.36 | Active | 4% |  |  |
| O=C(NC1CCN(Cc2ccc(C(F)(F)F)cc2)CC1)c1ccc2ccccc2c1 |  |  | 7.08 |  | 0% |  | 36% |
| COc1cccc(CN2CCC(NC(=O)c3cccc4ccccc34)CC2)c1 |  |  | 6.77 | Active | 0% |  | 23% |

| Structure (SMILES) | pKi [1] | Activity [2] | pKi [3] | Activity [4] | inhibition [5] | inhibition [6] | inhibition [7] |
| --- | --- | --- | --- | --- | --- | --- | --- |
| O=C(NC1CCN(Cc2ccccc2Cl)CC1)c1ccc2ccccc2c1 | 6.88 | Active |  |  | 0% | 48% |  |
| COc1cccc(CN2CCC(NC(=O)c3ccc4ccccc4c3)CC2)c1 | 6.80 | Active | 7.80 | Active | 0% |  |  |
| O=C(NC1CCN(Cc2cccc(C(F)(F)F)c2)CC1)c1cccc2ccccc12 |  |  | 6.92 | Active | 0% |  |  |
| O=C(NC1CCN(Cc2ccc(Cl)cc2)CC1)c1cccc2ccccc12 |  |  | 7.37 | Active | 0% |  | 23% |
| O=C(NC1CCN(Cc2ccccn2)CC1)c1ccc2ccccc2c1 | 6.26 |  | 6.52 |  | 5% |  |  |
| O=C(NC1CCN(Cc2ccccc2)CC1)c1cccc2ccccc12 |  | Active |  | Active |  |  |  |
| COc1ccc(CN2CCC(NC(=O)c3ccc4ccccc4c3)CC2)cc1 | 6.82 | Active | 7.51 | Active | 18% |  |  |
| O=C(NC1CCN(Cc2cccc(Br)c2)CC1)c1ccc2ccccc2c1 | 7.28 | Active | 7.44 | Active |  |  |  |
| Cc1ccccc1CN1CCC(NC(=O)c2cccc3ccccc23)CC1 |  |  | 6.81 | Active | 9% |  | 26% |
| Cc1cccc(CN2CCC(NC(=O)c3cccc4ccccc34)CC2)c1 |  |  | 7.11 | Active | 11% |  | 38% |
| Cc1ccc(CN2CCC(NC(=O)c3cccc4ccccc34)CC2)cc1 |  |  | 7.16 | Active | 13% |  | 33% |
| Cc1ccccc1CN1CCC(NC(=O)c2ccc3ccccc3c2)CC1 | 6.76 | Active | 7.59 | Active | 6% |  |  |
| O=C(NC1CCN(Cc2cccc(Cl)c2)CC1)c1ccc2ccccc2c1 | 6.88 | Active | 7.27 | Active | 29% |  |  |
| Cc1ccc(CN2CCC(NC(=O)c3ccc4ccccc4c3)CC2)cc1 | 6.65 | Active | 7.68 | Active | 42% |  |  |
| O=C(NC1CCN(Cc2cccc(Cl)c2)CC1)c1cccc2ccccc12 |  |  | 6.94 | Active | 0% |  | 49% |
| Cc1cccc(CN2CCC(NC(=O)c3ccc4ccccc4c3)CC2)c1 | 7.06 | Active | 7.96 | Active | 20% |  |  |
| O=C(NC1CCN(Cc2ccc(C(F)(F)F)cc2)CC1)c1cccc2ccccc12 |  |  | 7.02 | Active | 0% |  | 32% |
